Key:
[1] = Inhibitory activity at TBOB site in GABA gated chloride channel at 100 nM
[2] = target: Adrenergic receptor beta (Homo sapiens) (UniProt P08588+P07550+P13945); experiment: Inhibition of non selective binding to adrenergic beta receptor at 100 nM; format: protein assay
[3] = target: T1, B2 bradykinin receptor (Homo sapiens) (UniProt P30411); experiment: Inhibition of bradykinin 2 receptor at 1 nM
T1 sequence (whole entry): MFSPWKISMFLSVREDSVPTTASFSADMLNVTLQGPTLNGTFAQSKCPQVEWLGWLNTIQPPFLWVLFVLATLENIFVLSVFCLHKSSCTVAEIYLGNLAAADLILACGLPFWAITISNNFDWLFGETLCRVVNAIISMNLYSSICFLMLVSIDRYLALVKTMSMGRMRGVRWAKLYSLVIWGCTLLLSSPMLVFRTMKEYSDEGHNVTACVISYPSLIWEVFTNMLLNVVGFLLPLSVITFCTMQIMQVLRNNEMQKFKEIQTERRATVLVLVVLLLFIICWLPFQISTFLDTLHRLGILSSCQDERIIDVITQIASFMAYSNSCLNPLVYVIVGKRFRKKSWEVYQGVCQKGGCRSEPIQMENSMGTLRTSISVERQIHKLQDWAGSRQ

[4] = target: T2, Androgen receptor (Homo sapiens) (UniProt P10275); experiment: Inhibition of testosterone receptor at 1 nM
T2 sequence (whole entry): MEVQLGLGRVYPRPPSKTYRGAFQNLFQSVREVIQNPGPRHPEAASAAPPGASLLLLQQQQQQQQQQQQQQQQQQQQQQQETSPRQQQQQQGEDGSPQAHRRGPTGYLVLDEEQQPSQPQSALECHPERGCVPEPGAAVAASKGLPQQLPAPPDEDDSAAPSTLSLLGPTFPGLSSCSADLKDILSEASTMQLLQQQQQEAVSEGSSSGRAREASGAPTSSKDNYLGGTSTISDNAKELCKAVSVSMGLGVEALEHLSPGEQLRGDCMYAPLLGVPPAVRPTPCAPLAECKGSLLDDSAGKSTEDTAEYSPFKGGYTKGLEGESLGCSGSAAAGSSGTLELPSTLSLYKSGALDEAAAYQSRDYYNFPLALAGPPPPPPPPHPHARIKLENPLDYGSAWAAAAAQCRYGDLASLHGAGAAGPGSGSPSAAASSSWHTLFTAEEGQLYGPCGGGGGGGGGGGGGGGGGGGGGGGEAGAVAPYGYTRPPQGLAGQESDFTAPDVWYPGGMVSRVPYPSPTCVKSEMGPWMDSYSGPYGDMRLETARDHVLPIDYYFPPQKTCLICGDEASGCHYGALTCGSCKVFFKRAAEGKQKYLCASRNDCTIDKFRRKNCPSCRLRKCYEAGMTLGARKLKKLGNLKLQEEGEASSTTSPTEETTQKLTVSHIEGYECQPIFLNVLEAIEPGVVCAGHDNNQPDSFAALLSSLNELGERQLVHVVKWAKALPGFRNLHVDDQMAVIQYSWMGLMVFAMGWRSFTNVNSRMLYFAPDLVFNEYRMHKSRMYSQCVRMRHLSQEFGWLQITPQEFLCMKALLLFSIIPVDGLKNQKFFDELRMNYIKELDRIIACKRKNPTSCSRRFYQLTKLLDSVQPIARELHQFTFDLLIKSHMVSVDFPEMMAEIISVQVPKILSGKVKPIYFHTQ

[5] = Inhibition of non selective binding to VIP at 100 nM
[6] = target: 5-hydroxytryptamine receptor 2A (Rattus norvegicus, UniProt P14842); experiment: (§1) Activity against 5HT2A mediated intracellular calcium mobilization by FLIPR in rat vascular smooth muscle cells; format: functional, cell-based
[7] = target: 5-hydroxytryptamine receptor 2A (Rattus norvegicus) (UniProt P14842); experiment: as §1; format: functional, cell-based
[8] = target: T3, Atrial natriuretic peptide receptor 1 (Homo sapiens) (UniProt P16066); experiment: Inhibition of ANP A at 1 nM
T3 sequence (whole entry): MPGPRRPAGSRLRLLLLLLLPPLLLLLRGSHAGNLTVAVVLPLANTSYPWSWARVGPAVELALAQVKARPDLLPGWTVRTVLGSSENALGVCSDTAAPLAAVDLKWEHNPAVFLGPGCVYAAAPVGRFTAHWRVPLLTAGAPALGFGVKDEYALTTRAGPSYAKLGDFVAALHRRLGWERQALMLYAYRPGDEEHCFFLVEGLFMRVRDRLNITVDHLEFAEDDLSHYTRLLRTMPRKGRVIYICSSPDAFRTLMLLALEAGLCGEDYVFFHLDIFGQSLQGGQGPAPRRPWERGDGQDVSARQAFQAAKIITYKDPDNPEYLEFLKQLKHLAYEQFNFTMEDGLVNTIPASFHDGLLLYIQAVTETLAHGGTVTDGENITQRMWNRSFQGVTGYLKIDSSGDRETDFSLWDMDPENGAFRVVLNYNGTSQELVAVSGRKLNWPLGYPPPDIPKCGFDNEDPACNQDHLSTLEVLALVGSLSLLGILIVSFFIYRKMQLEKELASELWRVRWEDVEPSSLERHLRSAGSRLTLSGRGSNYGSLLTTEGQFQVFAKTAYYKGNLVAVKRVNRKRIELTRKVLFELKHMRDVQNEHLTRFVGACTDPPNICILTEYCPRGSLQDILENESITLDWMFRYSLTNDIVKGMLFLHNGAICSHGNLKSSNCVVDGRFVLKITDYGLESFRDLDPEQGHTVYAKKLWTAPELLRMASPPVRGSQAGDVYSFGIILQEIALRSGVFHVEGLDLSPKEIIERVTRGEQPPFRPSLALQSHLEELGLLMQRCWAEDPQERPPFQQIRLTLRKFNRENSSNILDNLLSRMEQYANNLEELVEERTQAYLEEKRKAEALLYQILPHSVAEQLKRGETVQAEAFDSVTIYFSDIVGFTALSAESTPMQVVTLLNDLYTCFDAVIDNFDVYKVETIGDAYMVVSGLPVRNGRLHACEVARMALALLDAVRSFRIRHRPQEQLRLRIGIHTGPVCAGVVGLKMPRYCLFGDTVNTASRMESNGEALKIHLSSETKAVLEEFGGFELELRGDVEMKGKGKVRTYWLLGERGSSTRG

5-hydroxytryptamine receptor 2A (Rattus norvegicus), sequence (P14842 whole entry): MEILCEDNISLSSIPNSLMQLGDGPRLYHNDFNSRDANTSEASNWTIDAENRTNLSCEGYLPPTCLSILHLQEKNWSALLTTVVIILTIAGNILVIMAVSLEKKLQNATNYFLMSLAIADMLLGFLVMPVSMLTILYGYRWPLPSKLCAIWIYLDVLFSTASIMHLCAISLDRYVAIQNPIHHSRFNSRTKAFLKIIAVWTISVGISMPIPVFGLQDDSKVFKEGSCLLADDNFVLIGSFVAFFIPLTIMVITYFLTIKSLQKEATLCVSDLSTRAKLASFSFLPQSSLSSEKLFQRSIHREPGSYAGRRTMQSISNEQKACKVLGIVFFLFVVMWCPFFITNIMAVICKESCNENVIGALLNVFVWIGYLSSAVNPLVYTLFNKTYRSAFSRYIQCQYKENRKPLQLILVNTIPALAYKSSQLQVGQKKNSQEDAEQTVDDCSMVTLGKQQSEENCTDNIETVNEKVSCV
5-hydroxytryptamine receptor 2A, sequence (P14842 whole entry): as above

Q: With `C[C@H](N)Cn1ncc2ccc(O)cc21` as the compound, how does the inhibition [1] read?
A: -5.9%

Q: What about the inhibition [2] of the same compound?
A: -7.77%

Q: What about the inhibition [3] of the same compound?
A: -6.46%

Q: And the inhibition [4]?
A: 0.47%

Q: And the inhibition [5]?
A: 5.41%

Q: What about the EC50 [6] of the same compound?
A: 42.7 nM

Q: And the Emax [7]?
A: 81%

Q: What about the inhibition [8] of the same compound?
A: -5.65%

Source: ChEMBL document CHEMBL1148572, “1-((S)-2-aminopropyl)-1H-indazol-6-ol: a potent peripherally acting 5-HT2 receptor agonist with ocular hypotensive activity” (J Med Chem, 2006)
